In assay [1] the target is CK1ε (Homo sapiens (Human), UniProt P49674). As to the kind of experiment: CK1ε kinase assay (Caliper LABCHIP electrophoretic separation of fluoresceinated peptide substrate and product). It counts as biochemical. The following applies: 200 pM CK1ε, 50 μM ATP, 1.5 μM peptide substrate, 22 hours at room temperature; read-out: CK1ε (IC50). An outline of the steps:
(§1)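 IC50 values were obtained by non-linear regression from eleven-concentration titrations. The kinase reactions were incubated for 22 hours at room temperature before termination with 35 mM EDTA.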

The target of assay [2] is CK1δ (Homo sapiens (Human), UniProt P48730). As to the kind of experiment: CK1δ kinase assay (Caliper LABCHIP electrophoretic separation of fluoresceinated peptide substrate and product). Type of assay: biochemical. The method, boiled down:
as §1

Where [3] appears, read: 200 pM CK1δ, 50 μM ATP, 1.5 μM peptide substrate, 22 hours at room temperature, read-out: CK1δ (IC50).

Read-outs that look alike come from different tables or passages of the source.

Sequence of CK1δ (P48730 whole entry): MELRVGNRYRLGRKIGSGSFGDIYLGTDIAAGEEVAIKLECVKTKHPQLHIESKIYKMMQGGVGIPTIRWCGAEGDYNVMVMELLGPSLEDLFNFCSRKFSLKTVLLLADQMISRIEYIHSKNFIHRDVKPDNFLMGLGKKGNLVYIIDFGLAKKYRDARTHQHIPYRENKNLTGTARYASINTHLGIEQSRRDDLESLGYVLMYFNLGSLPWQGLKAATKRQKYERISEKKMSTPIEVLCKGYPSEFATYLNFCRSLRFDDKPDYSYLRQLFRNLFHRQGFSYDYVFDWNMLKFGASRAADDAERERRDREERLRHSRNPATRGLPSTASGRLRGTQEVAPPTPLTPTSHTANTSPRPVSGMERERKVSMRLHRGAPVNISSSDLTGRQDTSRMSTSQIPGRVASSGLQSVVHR
Sequence of CK1ε (P49674 whole entry): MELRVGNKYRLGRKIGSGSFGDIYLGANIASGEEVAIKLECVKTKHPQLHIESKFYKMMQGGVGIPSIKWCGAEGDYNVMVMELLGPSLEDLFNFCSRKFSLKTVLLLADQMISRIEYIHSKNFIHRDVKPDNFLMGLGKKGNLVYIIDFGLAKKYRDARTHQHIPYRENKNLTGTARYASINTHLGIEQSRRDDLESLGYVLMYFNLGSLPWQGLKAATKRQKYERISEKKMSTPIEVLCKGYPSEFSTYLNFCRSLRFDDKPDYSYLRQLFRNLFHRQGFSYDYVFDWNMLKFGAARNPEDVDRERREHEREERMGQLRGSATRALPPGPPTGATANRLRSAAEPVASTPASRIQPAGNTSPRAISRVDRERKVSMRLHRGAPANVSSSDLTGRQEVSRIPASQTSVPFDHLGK

The IC50 is the concentration needed to halve the response being measured. `NC(=O)c1c(-c2cc(Cl)cc(Cl)c2)nn2c1CN(C(=O)Nc1ccc(Cl)c(Cl)c1)CC2` [Compound 302, N^5-(3,4-Dichlorophenyl)-2-(3,5-dichlorophenyl)-6,7-dihydropyrazolo[1,5-a] pyrazine-3,5(4H)-dicarboxamide]: the IC50 in assay [1] and in assay [2] (setting [3]) was 0.01 to 10 nM in each case.
For the molecule `COc1cccc(-c2nn3c(c2C(N)=O)CN(C(=O)Nc2ccc(Cl)c(Cl)c2)CC3)c1` [Compound 303, N^5-(3,4-Dichlorophenyl)-2-(3-methoxyphenyl)-6,7-dihydropyrazolo[1,5-a] pyrazine-3,5(4H)-dicarboxamide], the IC50 in assay [1] and in assay [2] (setting [3]) was 0.01 to 10 nM in each case.
As to `Cc1cc(NC(=O)N2CCn3nc(-c4cc(Cl)c5ocnc5c4)c(C(N)=O)c3C2)ccc1C#N` [Compound 310, 2-(7-Chlorobenzo[d]oxazol-5-yl)-N^5-(4-cyano-3-methylphenyl)-6,7-dihydropyrazolo[1,5-a]pyrazine-3,5(4H)-dicarboxamide], the IC50 in assay [1] and in assay [2] (setting [3]) was 0.01 to 10 nM throughout.
As for `Cc1nc2cc(-c3nn4c(c3C(N)=O)CN(C(=O)Nc3ccc(C#N)cc3)CC4)cc(Cl)c2o1` [Compound 311, 2-(7-Chloro-2-methylbenzo[d]oxazol-5-yl)-N^5-(4-cyanophenyl)-6,7-dihydropyrazolo[1,5-a]pyrazine-3,5(4H)-dicarboxamide], the IC50 in assay [1] and in assay [2] (setting [3]) was 0.01 to 10 nM each time.
As for `Cc1nc2cc(-c3nn4c(c3C(N)=O)CN(C(=O)Nc3ccc(C#N)c(Cl)c3)CC4)cc(Cl)c2o1` [Compound 312, 2-(7-Chloro-2-methylbenzo[d]oxazol-5-yl)-N^5-(3-chloro-4-cyanophenyl)-6,7-dihydropyrazolo[1,5-a]pyrazine-3,5(4H)-dicarboxamide], the 50% inhibitory concentration (IC50) in assay [1] and in assay [2] (setting [3]) was 0.01 to 10 nM each time.
Take `Cc1nc2cc(-c3nn4c(c3C(N)=O)CN(C(=O)Nc3ccc(C#N)c(C)c3)CC4)cc(Cl)c2o1` [Compound 313, 2-(7-Chloro-2-methylbenzo[d]oxazol-5-yl)-N^5-(4-cyano-3-methylphenyl)-6,7-dihydropyrazolo[1,5-a]pyrazine-3,5(4H)-dicarboxamide]: the half-inhibitory concentration (IC50) in assay [1] and in assay [2] (setting [3]) was 0.01 to 10 nM throughout.
Regarding `Cc1nc2cc(-c3nn4c(c3C(N)=O)CN(C(=O)Nc3ccc(C#N)c(F)c3)CC4)cc(Cl)c2o1` [Compound 314, 2-(7-Chloro-2-methylbenzo[d]oxazol-5-yl)-N^5-(4-cyano-3-fluorophenyl)-6,7-dihydropyrazolo[1,5-a]pyrazine-3,5(4H)-dicarboxamide], the concentration for half-maximal inhibition (IC50) in assay [1] and in assay [2] (setting [3]) was 0.01 to 10 nM in each case.
As for `N#Cc1ccc(NC(=O)N2CCn3nc(-c4cc(Cl)c5[nH]ncc5c4)c(C(N)=O)c3C2)cc1F` [Compound 316, 2-(7-Chloro-1H-indazol-5-yl)-N^5-(4-cyano-3-fluorophenyl)-6,7-dihydropyrazolo[1,5-a]pyrazine-3,5(4H)-dicarboxamide], the IC50 in assay [1] and in assay [2] (setting [3]) was 0.01 to 10 nM throughout.
As for `Cc1cc(NC(=O)N2CCn3nc(-c4cc(Cl)c5[nH]ncc5c4)c(C(N)=O)c3C2)ccc1C#N` [Compound 317, 2-(7-Chloro-1H-indazol-5-yl)-N^5-(4-cyano-3-methylphenyl)-6,7-dihydropyrazolo[1,5-a]pyrazine-3,5(4H)-dicarboxamide], the IC50 in assay [1] and in assay [2] (setting [3]) was 0.01 to 10 nM in each case.
As for `Cn1ncc2cc(-c3nn4c(c3C(N)=O)CN(C(=O)Nc3ccc(C#N)cc3)CC4)cc(Cl)c21` [Compound 318, 2-(7-Chloro-1-methyl-1H-indazol-5-yl)-N^5-(4-cyanophenyl)-6,7-dihydropyrazolo[1,5-a]pyrazine-3,5(4H)-dicarboxamide], the IC50 in assay [1] and in assay [2] (setting [3]) was 0.01 to 10 nM in each case.
Take `Cc1n[nH]c2c(Cl)cc(-c3nn4c(c3C(N)=O)CN(C(=O)Nc3ccc(C#N)cc3)CC4)cc12` [Compound 320, 2-(7-Chloro-3-methyl-1H-indazol-5-yl)-N^5-(4-cyanophenyl)-6,7-dihydropyrazolo[1,5-a]pyrazine-3,5(4H)-dicarboxamide]: the IC50 in assay [1] and in assay [2] (setting [3]) was 0.01 to 10 nM in each case.
Take `Cc1nn(C)c2c(Cl)cc(-c3nn4c(c3C(N)=O)CN(C(=O)Nc3ccc(C#N)cc3)CC4)cc12` [Compound 322, 2-(7-Chloro-1,3-dimethyl-1H-indazol-5-yl)-N-(4-cyanophenyl)-6,7-dihydropyrazolo[1,5-a]pyrazine-3,5(4H)-dicarboxamide]: the half-inhibitory concentration (IC50) in assay [1] and in assay [2] (setting [3]) was 0.01 to 10 nM each time.
Regarding `N#Cc1ccc(NC(=O)N2CCn3nc(-c4cc(F)c5cn[nH]c5c4)c(C(N)=O)c3C2)cc1Cl` [Compound 323, N^5-(3-Chloro-4-cyanophenyl)-2-(4-fluoro-1H-indazol-6-yl)-6,7-dihydropyrazolo[1,5-a]pyrazine-3,5(4H)-dicarboxamide], the IC50 was 0.01 to 10 nM in assay [1] and 10 to 100 nM in assay [2] (setting [3]).
For `N#Cc1ccc(NC(=O)N2CCn3nc(-c4cc(F)c5cn[nH]c5c4)c(C(N)=O)c3C2)cc1F` [Compound 324, N^5-(4-Cyano-3-fluorophenyl)-2-(4-fluoro-1H-indazol-6-yl)-6,7-dihydropyrazolo[1,5-a]pyrazine-3,5(4H)-dicarboxamide], the IC50 in assay [1] and in assay [2] (setting [3]) was 0.01 to 10 nM each time.
`Cc1cc(NC(=O)N2CCn3nc(-c4cc(F)c5cn[nH]c5c4)c(C(N)=O)c3C2)ccc1C#N` [Compound 325, N^5-(4-Cyano-3-methylphenyl)-2-(4-fluoro-1H-indazol-6-yl)-6,7-dihydropyrazolo[1,5-a]pyrazine-3,5(4H)-dicarboxamide]: the IC50 in assay [1] and in assay [2] (setting [3]) was 0.01 to 10 nM each time.
On to `Cn1ncc2c(F)cc(-c3nn4c(c3C(N)=O)CN(C(=O)Nc3ccc(C#N)cc3)CC4)cc21` [Compound 326, N^5-(4-Cyanophenyl)-2-(4-fluoro-1-methyl-1H-indazol-6-yl)-6,7-dihydropyrazolo[1,5-a]pyrazine-3,5(4H)-dicarboxamide], for which the IC50 in assay [1] and in assay [2] (setting [3]) was 0.01 to 10 nM in each case.
Take `Cn1cc2c(F)cc(-c3nn4c(c3C(N)=O)CN(C(=O)Nc3ccc(C#N)cc3)CC4)cc2n1` [Compound 328]: the IC50 in assay [1] and in assay [2] (setting [3]) was 10 to 100 nM in each case.
In the case of `N#Cc1ccc(NC(=O)N2Cc3c(C(N)=O)c(-c4ccc(F)c(Cl)c4)nn3CC2C2CC2)cc1` (stereo not drawn) [Compound 341], the IC50 in assay [1] and in assay [2] (setting [3]) was 100 to 2000 nM throughout.
`N#Cc1ccc(NC(=O)N2Cc3c(C(N)=O)c(-c4ccc(F)c(Cl)c4)nn3CC23CC3)cc1` [Compound 343, 2′-(3-Chloro-4-fluorophenyl)-N^5′-(4-cyanophenyl)-4′H-spiro[cyclopropane-1,6′-pyrazolo[1,5-a]pyrazine]-3′,5′(7′H)-dicarboxamide]: the 50% inhibitory concentration (IC50) in assay [1] and in assay [2] (setting [3]) was 10 to 100 nM throughout.
`Cc1cc(NC(=O)N2Cc3c(C(N)=O)c(-c4ccc(F)c(Cl)c4)nn3CC23CC3)ccc1C#N` [Compound 344, 2′-(3-Chloro-4-fluorophenyl)-N^5′-(4-cyano-3-methylphenyl)-4′H-spiro[cyclopropane-1,6′-pyrazolo[1,5-a]pyrazine]-3′,5′(7′H)-dicarboxamide]: the half-maximal inhibitory concentration (IC50) in assay [1] and in assay [2] (setting [3]) was 0.01 to 10 nM each time.
In the case of `N#Cc1ccc(NC(=O)N2Cc3c(C(N)=O)c(-c4ccc(F)c(Cl)c4)nn3CC23CC3)cc1C(F)(F)F` [Compound 345, 2′-(3-Chloro-4-fluorophenyl)-N^5′-(4-cyano-3-(trifluoromethyl)phenyl)-4′H-spiro[cyclopropane-1,6′-pyrazolo[1,5-a]pyrazine]-3′,5′(7′H)-dicarboxamide], the IC50 was 10 to 100 nM in assay [1] and 10 to 100 nM in assay [2] (CK1δ (IC50, nM)).
Consider `N#Cc1ccc(NC(=O)N2Cc3c(C(N)=O)c(-c4ccc(F)c(Cl)c4)nn3[C@H]3COC[C@H]32)cc1` [Compound 347, (5aS,8aR)-2-(3-Chloro-4-fluorophenyl)-N^5-(4-cyanophenyl)-5a,6,8,8a-tetrahydrofuro[3,4-e]pyrazolo[1,5-a]pyrazine-3,5(4H)-dicarboxamide], for which the IC50 in assay [1] and in assay [2] (setting [3]) was 0.01 to 10 nM each time.
In the case of `N#Cc1ccc(NC(=O)N2Cc3c(C(N)=O)c(-c4ccc(Cl)c(Cl)c4)nn3[C@H]3COC[C@H]32)cc1` [Compound 349, (5aS,8aR)-N^5-(4-Cyanophenyl)-2-(3,4-dichlorophenyl)-5a,6,8,8a-tetrahydrofuro[3,4-e]pyrazolo[1,5-a]pyrazine-3,5(4H)-dicarboxamide], the IC50 in assay [1] and in assay [2] (setting [3]) was 0.01 to 10 nM throughout.
For `NC(=O)c1c(-c2cccc(Cl)c2)nn2c1CN(C(=O)Nc1cc(Cl)cc(Cl)c1)CC2CO` (stereo not drawn) [Compound A4, 2-(3-Chlorophenyl)-N^5-(3,5-dichlorophenyl)-7-(hydroxymethyl)-6,7-dihydropyrazolo[1,5-a]pyrazine-3,5(4H)-dicarboxamide], the half-maximal inhibitory concentration (IC50) in assay [1] and in assay [2] (setting [3]) was 0.01 to 10 nM in each case.
For `NC(=O)c1c(-c2cccc(Cl)c2)nn2c1CN(C(=O)Nc1ccc(N3CCCCC3)cc1)C[C@H]2CF` [Compound A10, (S)-2-(3-Chlorophenyl)-7-(fluoromethyl)-N^5-(4-(piperidin-1-yl)phenyl)-6,7-dihydropyrazolo[1,5-a]pyrazine-3,5(4H)-dicarboxamide], the IC50 in assay [1] and in assay [2] (setting [3]) was 0.01 to 10 nM throughout.
As to `NC(=O)c1c(-c2cccc(Cl)c2)nn2c1CN(C(=O)Nc1ccc(N3CCCCC3)cc1)C[C@@H]2CF` [Compound A11, (R)-2-(3-Chlorophenyl)-7-(fluoromethyl)-N^5-(4-(piperidin-1-yl)phenyl)-6,7-dihydropyrazolo[1,5-a]pyrazine-3,5(4H)-dicarboxamide], the concentration for half-maximal inhibition (IC50) in assay [1] and in assay [2] (setting [3]) was 0.01 to 10 nM throughout.
Take `CC1CN(C(=O)Nc2ccc(C#N)cc2)Cc2c(C(N)=O)c(-c3cccc(Cl)c3)nn21` (stereo not drawn) [Compound A13, 2-(3-Chlorophenyl)-N^5-(4-cyanophenyl)-7-methyl-6,7-dihydropyrazolo[1,5-a]pyrazine-3,5(4H)-dicarboxamide]: the IC50 in assay [1] and in assay [2] (setting [3]) was 0.01 to 10 nM in each case.
